This note sets out measurements from ChEMBL document CHEMBL4145523, “New selective cyclooxygenase-2 inhibitors from cyclocoumarol: Synthesis, characterization, biological evaluation and molecular modeling” (Eur J Med Chem, 2018).

Activity calls are given as the source filed them. No cut-off for these calls is given here.

For data set [1], the target named is T1, Prostaglandin G/H synthase 2 (Mus musculus) (UniProt Q05769).
T1 sequence (whole entry): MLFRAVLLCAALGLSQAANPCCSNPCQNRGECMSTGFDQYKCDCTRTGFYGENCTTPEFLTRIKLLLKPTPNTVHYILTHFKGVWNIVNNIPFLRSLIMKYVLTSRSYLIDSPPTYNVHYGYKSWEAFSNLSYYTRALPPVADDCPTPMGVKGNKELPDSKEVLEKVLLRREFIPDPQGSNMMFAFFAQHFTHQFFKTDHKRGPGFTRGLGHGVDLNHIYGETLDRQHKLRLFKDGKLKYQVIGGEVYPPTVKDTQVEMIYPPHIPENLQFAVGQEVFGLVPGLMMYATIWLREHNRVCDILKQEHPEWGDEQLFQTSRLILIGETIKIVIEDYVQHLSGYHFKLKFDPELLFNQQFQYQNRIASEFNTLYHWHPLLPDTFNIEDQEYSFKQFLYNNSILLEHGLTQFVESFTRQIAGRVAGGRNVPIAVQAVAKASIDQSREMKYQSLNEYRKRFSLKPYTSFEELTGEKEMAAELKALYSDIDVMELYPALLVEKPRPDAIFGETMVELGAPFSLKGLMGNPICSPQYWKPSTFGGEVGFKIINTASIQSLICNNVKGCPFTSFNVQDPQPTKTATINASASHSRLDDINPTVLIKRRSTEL
Kind of data set: Inhibition of COX-2 in mouse RAW264.7 cells assessed as reduction in PGE2 production preincubated for 2 hrs followed by LPS stimulation measured after 24 hrs by enzyme immunoassay. In kind it is cell-based.

Data set [2] relates to RAW264.7. Description: Antiinflammatory activity against mouse RAW264.7 cells assessed as inhibition of LPS induced cox-2 expression at 5 to 20 uM preincubated for 2 hrs followed by LPS challenge measured after 24 hrs by Western blot method. In kind it is functional, cell-based.
For data set [3], the system named is RAW264.7. Kind of data set: Down regulation of COX-1 expression in mouse RAW264.7 cells at 10 uM after 24 hrs by Western blot method. In kind it is ADME, cell-based. To be noted: raw264.7, 24 h. (In general: Immunoblotting shows a protein as a band on a membrane.)
In data set [4] the target is T2, Prostaglandin G/H synthase 1 (Mus musculus, UniProt P22437).
T2 sequence (P22437 whole entry): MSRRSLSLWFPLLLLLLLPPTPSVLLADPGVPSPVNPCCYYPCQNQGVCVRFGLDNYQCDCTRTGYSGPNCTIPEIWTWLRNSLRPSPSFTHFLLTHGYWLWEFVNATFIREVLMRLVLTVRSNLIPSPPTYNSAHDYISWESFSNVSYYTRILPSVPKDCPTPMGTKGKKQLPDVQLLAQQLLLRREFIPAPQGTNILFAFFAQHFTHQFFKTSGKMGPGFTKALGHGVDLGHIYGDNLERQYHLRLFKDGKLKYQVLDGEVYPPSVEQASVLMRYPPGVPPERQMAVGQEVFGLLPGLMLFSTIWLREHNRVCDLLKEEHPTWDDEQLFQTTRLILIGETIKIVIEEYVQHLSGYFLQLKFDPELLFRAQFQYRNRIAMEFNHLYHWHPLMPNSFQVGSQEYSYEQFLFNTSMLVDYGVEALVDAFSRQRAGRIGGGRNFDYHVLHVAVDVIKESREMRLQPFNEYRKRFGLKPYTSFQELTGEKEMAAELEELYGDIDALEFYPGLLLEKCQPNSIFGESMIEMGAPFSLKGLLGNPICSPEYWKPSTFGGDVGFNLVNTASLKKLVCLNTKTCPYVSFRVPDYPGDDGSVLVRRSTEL
Kind of data set: Inhibition of COX-1 in mouse RAW264.7 cells assessed as reduction in PGE2 production at 10 uM after 24 hrs by enzyme immunoassay. In kind it is cell-based. To be noted: raw264.7, 24 h.

Consider `COc1ccc(C2CC(C)(OC)Oc3c2c(=O)oc2ccccc32)cc1` (single isomer, unassigned), for which the inhibition entry in data set [1] was “Dose-dependent effect”. Further, in the data set on RAW264.7 [2], the inhibition result was “inactive”. The Activity result with RAW264.7 [3] is reported as “Non-Toxic”. The “inhibition (INH)” value in data set [4] is reported as “Not Active”.
